The subject of assay [1] is Cavia porcellus. In words: Intravenous dose required for inhibition of [Nle10]-NKA4-10 induced bronchoconstriction in guinea pig. The format is functional.
Assay [2] concerns Cavia porcellus. The assay is described as follows: Intraperitoneal dose required for inhibition of [Nle10]-NKA4-10 induced bronchoconstriction in guinea pig. The class given is functional. As to conditions: ip.

What is called ED50 is the midpoint of the dose-response relation. A high value points to weaker potency. For `CC(=O)NC1(c2ccccc2)CCN(CC[C@H](CN(C)C(=O)c2ccccc2)c2ccc(Cl)c(Cl)c2)CC1` [SAREDUTANT], the median effective dose (ED50) in the assay on Cavia porcellus [1] worked out at 0.037 mg/kg; with Cavia porcellus [2], 0.35 mg/kg.

These data come from ChEMBL document CHEMBL1127189, “A facile synthesis of the novel Neurokinin A antagonist SR 48968” (Bioorg Med Chem Lett, 1993).
